Test results: patent publication US20200339544A1 (JOINT STOCK COMPANY "BIOCAD", priority 2017, published 2020)
Read-outs that look alike come from different tables or passages of the source.

Legend:
[1] = tested on: H1975 (lung adenocarcinoma, DM, L828R/T790M); assay: Antiproliferative activity on H1975 cells (Alamar Blue); assay type: cell-based; conditions: for IC50: Homo sapiens, NCI-H1975, H1975 cells; for SI IC50(A549)/IC50(DM): selectivity index, A549 vs H1975 cells
Description: (§1) Antiproliferative activity of EGFR inhibitors (Tables 15 and 16) was measured in cell-based bioassay on continuous epithelial cell cultures: A549 (lung adenocarcinoma, ATCC® CRM-CCL-185™—WT), HCC827 (lung adenocarcinoma, ATCC® CRL-2868™—SM (SingleMutantEGFR, exon19delE746-A750)) and H1975 (lung adenocarcinoma, ATCC® CRL-5908™—DM (DoubleMutantEGFR, L828R/T790M)) using cell viability reagent Alamar Blue (ThermoFisher, # DAL1100). Cells were cultured in 10% FBS-supplemented (Gibco, #16140071) RPMI-1640 (PanEco, S330p) for at least 1 passage after thawing, washed with PBS and passaged in 96-well culture plates (3599, Corning) with RPMI-1640 growth medium supplemented with 2% FBS in an amount of 5*10^3 cells/well for A549, 10*10^3 cells/well for HCC827 and 15*10^3 cells/well for H1975 in 100 μL, and incubated at 37° C. in an incubator (Thermo Forma, USA) under 5% of CO2 for 16-18 h for cell attachment.
(§2) The test compounds were dissolved in DMSO in the selected range of concentrations and transferred to RPMI-1640 medium (PanEco, S330p) supplemented with 2% FBS. After adding 50 μl of the prepared dilutions to the cells, the incubation mixture contained the final concentrations of the test substances and no more than 1% DMSO. The plates were Incubated at 37° C. for 72 h. After incubation, 15 μl of Alamar Blue vital dye (ThermoFisher, # DAL1100) was added to each well. The plates were shaken on an orbital shaker (Biosan, Latvia) and further incubated for 3-5 h in a CO2 incubator (Thermo Forma, USA). Number of living cells was estimated using a plate spectrophotometer Infinite M200Pro, (Tecan, Switzerland) measuring fluorescent signal at the excitation wavelength (λEx) of 540 nm and emission wavelength (λEm) of 590 nm.
IC50 was calculated using Magellan 7.2 software (Tecan, Switzerland) approximating experimental points by four-parameter logistic model with the optimization by Levenberg-Marquardt. […]
(§3) The ratio between IC50 for cell lines containing wild-type EGFR (A549) and IC50 for cell lines containing target mutation L828R/T790M (H1975) is the selectivity index (SI): […]

[2] = Chemical stability in human blood plasma; assay type: in vitro ADME; conditions: pooled human blood plasma; 10 μm; 4 hours at 37° C.; substance amount remaining
Description: 2) Determination of chemical stability in human blood plasma.
Determination of stability in human blood plasma was performed using pooled human blood plasma taken from ten healthy donors. The initial candidate solution (10 mM in DMSO) was diluted with pooled blood plasma to a concentration of 10 μm (test solution). The test solution was incubated in a dry block thermostat for 4 hours at 37° C. HPLC with Agilent 1200 liquid chromatography system (Agilent, USA) was employed to determine peak areas of the compounds in test samples, said peak areas corresponding to the initial test time (prior to incubation) and the final test time (after incubation in a dry block thermostat for 4 hours at 37° C.), proteins were preliminarily precipitated with acetonitrile. We used gradient elution (1 mL/min flow rate). Substance amount in % in a sample after thermostatting was determined.
The stability of the compounds was estimated.

WT EGFR (Wild-Type EGFR) = target: T1, WT EGFR (Wild-Type EGFR) (Homo sapiens, UniProt P00533); assay: Inhibition of WT EGFR kinase activity (ADP-Glo); assay type: biochemical
T1 construct: purchased SignalChem
Description: (§4) To assess IC50 values of the compounds disclosed herein, a biochemical assay of inhibition of kinase activity in a non-cellular system and a functional cellular anti-proliferation assay were used.
(§5) To assess inhibition of WT EGFR (Wild-Type EGFR), DM EGFR (DoubleMutantEGFR, L828R/T790M) kinase activity, SignalChem kinase system and ADP-Glo™ Kinase Assay (V9102, Promega) detection kit were used.
(§6) The measurements were carried out in a 25 μL reaction volume using a 96-well plate. […] The solution of 0.5 mg/mL peptide substrate and 50 μM ATP in the same buffer were added; the solution was incubated for 180 minutes at 37° C. To detect the amount of ATP taken up during the kinase reaction, the ADP Glo Detection Kit (V9102, Promega) was used. The luminescence was measured with the Infinite M200Pro plate spectrophotometer (Tecan, Switzerland). IC50 values were calculated using Magellan 7.2 software (Tecan, Switzerland) approximating experimental points by four-parameter logistic model with the optimization by Levenberg-Marquardt (Table 14).

[3] = Enzyme stability in human liver S9 fractions; assay type: in vitro ADME; conditions: 0.5 mg/mL pooled human liver S9 fractions; 10 μM compound; 37° C.; pH 7.4; read-out: Stability in liver S9 fractions, Clint
Description: Determination of enzyme stability.
Measuring of candidate enzyme stability enabled estimation of the stability of the compounds towards the action of liver enzymes.
Enzyme degradation rate was measured by incubating the reaction mixture in a dry block thermostat at 37° C., said reaction mixture comprising 0.5 mg/mL of pooled human liver S9 fractions (XenoTech, USA, cat # H0610), 10 μM compound, 2 mM β-nicotinamide adenine dinucleotide (Carbosynth, UK, cat # NN10871) and 4 mM magnesium chloride in 0.1 M sodium-phosphate buffer, pH=7.4. The reaction was quenched with acetonitrile (100 μL of acetonitrile/100 μL of the reaction mixture). After quenching, the samples were centrifuged at 10000 rpm for 10 minutes. Supernatant fluid was tested by chromatographic technique using Agilent1200 (Agilent, USA). We used gradient elution (1 mL/min flow rate). A graph of the logarithm of substance's peak area as a function of time was made. The dependent factor of the line corresponded to the elimination rate constant K based on which the drug's half-life T½ and intrinsic clearance CLint were calculated:
Based on the data obtained, candidate enzyme stability in human liver S9 fractions was determined (see Table 11).

HepG2 cells = assay: General cytotoxicity on HepG2 cells; assay type: cell-based; conditions: therapeutic index, CC50 HepG2 / IC50 H1975
Description: (§7) The CC50 values were determined in the test for General cytotoxicity on HepG2 cells (rhepatocellular carcinoma, ATCC® HB-8065™) (Table 16). The cells were subcultured in DMEM medium (PanEco, S420p) supplemented with 10% FBS (Gibco, #16140071) for at least 1 passage after thawing, washed with PBS and passaged in 96-well culture plates (3599, Corning) at a concentration of 2*10^4 cells/100 μL per well, and incubated for 16-18 h. The test substances were titrated in DMSO and transferred to DMEM (PanEco, S420p) medium supplemented with 2% FBS, added to the cells and incubated at 37° C. for 72 hours; viability of the cells was then assessed using Alamar Blue dye (ThermoFisher, # DAL1100). CC50 was determined similarly to IC50.
(§8) The ratio between CC50 for HepG2 cell line and IC50 for H1975 cell line is the therapeutic index (TI): […]

[4] = General cytotoxicity on HepG2 cells; assay type: cell-based; conditions: human; general cytotoxicity, HepG2 cells, 72 hours, average of several tests
Description: as §7, §8

[5] = tested on: A549 (lung adenocarcinoma, WT); assay: Antiproliferative activity on A549 cells (Alamar Blue); assay type: cell-based; conditions: Homo sapiens, antiproliferative test
Description: as §1, §2
IC50 was calculated using Magellan 7.2 software (Tecan, Switzerland) approximating experimental points by four-parameter logistic model with the optimization by Levenberg-Marquardt.
as §3

[6] = target: T2, DM EGFR (DoubleMutantEGFR, L828R/T790M) (Homo sapiens, UniProt P00533, L858R/T790M); assay: Inhibition of DM EGFR kinase activity (ADP-Glo); assay type: biochemical; conditions: for IC50: inhibition of kinase activity, EGFR DM (L828R/T790M); for SI, IC50(WT)/IC50(DM): selectivity index, kinase EGFR WT vs EGFR DM
T2 construct: purchased SignalChem
Description: as §4, §5, §6

[7] = average values obtained in several tests, Table 16, read-out: H1975 (DM) IC50
[8] = antiproliferative test, Table 15, read-out: IC50 H1975 (DM)

Compound	IC50 [1, 7] [nM]	IC50 [1, 8] [nM]	SI IC50(A549)/IC50(DM) [1]	Stability in blood plasma, % [2] [%]	IC50 (WT EGFR (Wild-Type EGFR)) [nM]	Intrinsic clearance in human liver S9 fractions at 10 µM [3] [µL/min/mg]	TI, CC50/IC50 (HepG2 cells)	CC50 at 72 h [4] [nM]	IC50 [5] [nM]	IC50 [6] [nM]	SI, IC50(WT)/IC50(DM) [6]
C=CC(=O)Nc1cc(Nc2cc(C(=O)c3ccc(OC)cc3OC)ccn2)c(OC)cc1N(C)CCN(C)C [EGFR_3365_87, N-(5-((4-(2,4-dimethoxybenzoyl)pyridin-2-yl)amino)-2-((2-(dimethylamino)ethyl)(methyl)amino)-4-methoxyphenyl)acrylamide]	57.6	57.6	139	73.3	67.4	11.6	338	19500	8020	2.75	24.50
C=CC(=O)Nc1cc(Nc2cc(C(=O)c3ccccc3OC)ccn2)c(OC)cc1N(C)CCN(C)C [EGFR_3365_88, N-(2-((2-(dimethylamino)ethyl)(methyl)amino)-4-methoxy-5-((4-(2-methoxybenzoyl)pyridin-2-yl)amino)phenyl)acrylamide]	62.6	62.6	238	68.2	78.2	17	429	26900	14900	5.09	15.37
C=CC(=O)Nc1cc(Nc2cc(C(=O)c3ccc(OCCOC)cc3)ccn2)c(OC)cc1N(C)CCN(C)C [EGFR_3365_93, N-(2-((2-(dimethylamino)ethyl)(methyl)amino)-4-methoxy-5-((4-(4-(2-methoxyethoxy)benzoyl)pyridin-2-yl)amino)phenyl) acrylamide]	104	104	88	96.3	41.5	19.5	227	23600	9150	< 1	>41.48
C=CC(=O)Nc1cc(Nc2nccc(C(=O)c3ccc(OCCC)cc3OC)n2)c(OC)cc1N(C)CCN(C)C [EGFR_3365_101, N-(2-((2-(dimethylamino)ethyl)(methyl)amino)-4-methoxy-5-((4-(2-methoxy-4-propoxybenzoyl)pyrimidin-2-yl)amino)phenyl)acrylamide]	12.9	12.9	645	99.2	29.3	21.3	1238	16000	8320	2.54	11.55
C=CC(=O)Nc1cc(Nc2nccc(C(=O)c3ccc(OC(C)C)cc3OC)n2)c(OC)cc1N(C)CCN(C)C [EGFR_3365_103, N-(2-((2-(dimethylamino)ethyl)(methyl)amino)-5-((4-(4-isopropoxy-2-methoxybenzoyl)pyrimidin-2-yl)amino)-4-methoxyphenyl) acrylamide]	13.2	13.2	954	96.2	22.6	20.4	2232	29400	12600	2.14	10.60
C=CC(=O)Nc1cc(Nc2nccc(C(=O)c3ccc(N4CCCCC4)cc3OC)n2)c(OC)cc1N(C)CCN(C)C [EGFR_3365_122, N-(2-((2-(dimethylamino)ethyl)(methyl)amino)-4-methoxy-5-((4-(2-methoxy-4-(piperidin-1-yl)benzoyl)pyrimidin-2-yl)amino)phenyl)acrylamide]	2.21	2.21	2398	92.2	19.7		5710	12600	5310	2.67	7.35
